For the test, the system named is HBV. As to the kind of experiment: HBV replication, assembly, secretion in HepG2.2.15 cells (HBsAg/HBeAg ELISA, HBV DNA real-time PCR). The test is classed as cell-based, Hepatitis B virus. Here is the method: HepG2.2.15 cells were cultured with different concentrations of Antrodia camphorata fruit body extracts for 48 h, then the culture medium was collected to measure HBV HBsAg by ELISA. HepG2, containing no HBV, was used as a negative control (NC). The results are expressed as a percentage of the non-drug-treated positive control (NT) and are shown as mean±SD for three independent experiments. *, P<0.05; **, P<0.01; ***, P<0.001.
HepG2.2.15 cells were cultured with different concentrations of Antrodia camphorata fruit body extracts for 48 h, then the culture medium was collected to measure HBV HBeAg by ELISA. HepG2, containing no HBV, was used as a negative control (NC). The results are expressed as a percentage of the non-drug-treated positive control (NT) and are shown as mean±SD for three independent experiments. *, P<0.05; **, P<0.01; ***, P<0.001.
HepG2.2.15 cells were cultured with different concentrations of Antrodia camphorata fruit body extracts for 48 h, then the culture medium was collected to measure HBV DNA by real-time PCR. Plasmid p1.3HBcl, which contains a 1.3-fold HBV genome (ayw subtype (Galibert et al., 1979)), was used as standard in parallel PCR reactions, while HepG2, containing no HBV, was used as a negative control (NC). The results are expressed as a percentage of the non-drug-treated positive control (NT) and are shown as mean±SD for three independent experiments. *, P<0.05; **, P<0.01; ***, P<0.001.
Continuous HBV proliferation can be achieved in HepG2.2.15 cells (RRID:CVCL_L855) stably transfected with the HBV genome of the adw2 subtype. HepG2.2.15 cells are used because of the unlimited supply and constant quality and were maintained in Dulbecco's modified Eagle medium (DMEM; Invitrogen) supplemented with 10% heat-inactivated fetal bovine serum (FBS; Thermo) plus 100 units of penicillin and 100 µg of streptomycin per ml (both from Invitrogen).
The culture medium from drug-treated HepG2.2.15 cells is clarified by centrifugation at 1,000×g at 4° C. for 10 min, and then the supernatant is layered on top of a 20% sucrose cushion (20% sucrose, 20 mM HEPES, pH 7.4, 0.1% bovine serum albumin [BSA]) and centrifuged at 197,000×g for 3 h at 4° C. to pellet the HBV particles, which are then concentrated 100 fold to detect HBV DNA.
Total DNA is extracted with a Genomic DNA isolation kit (Nexttec Biotechnologie, Germany). Total RNA is isolated from cultured cells using TRIzol® reagent (Invitrogen). Reverse transcription is performed with the RNA templates, AMV reverse transcriptase (Roche), and oligo-dT primer. The products are subjected to real-time PCR with primer sets of specific genes and SYBR Green PCR Master Mix (Bio-Rad). The primer sets used for HBV core, HBsAg, cccDNA and GAPDH are described. The results are analyzed with the iCycler iQ real-time PCR detection system (Bio-Rad). Plasmid p1.3HBcl is prepared at 10-fold dilutions (2*10^4-2*10^9 […] to generate a standard curve in parallel PCR reactions.
To test whether Antrodia camphorata fruit body extracts had any effect on HBV genome replication, assembly, or secretion, HepG2.2.15 cells, which stably transfected with HBV genome, were used to incubate with four Antrodia camphorata fruit body extracts for 48 hours, then HBsAg, HBeAg and HBV DNA collected from medium were measured by ELISA and real-time PCR.
A general note: An ELISA detects its analyte on a solid surface through an enzyme-linked reagent.

Setting [1] is: 48 h, at 20 μg/ml and 50 μg/ml, percentage of non-drug-treated control.

This is an account of results in patent US11253527B2, “Method and composition for inhibiting virus infection” (priority 2019, dated 2022).

Molecules are shown by their SMILES.

On to `C=C(CC[C@@H](C)[C@H]1CC[C@H]2C3=C(C(=O)C[C@]12C)[C@@]1(C)CCC(O)[C@](C)(O)C1CC3O)C(C)C(=O)O` (stereo partly shown) [A4, antcin K], for which the “HBV replication, the assembly or release of viral particles” value is reported as “significantly inhibits”. Moreover, the “HBV DNA repressed to” value (48 h, 50 μg/ml, percentage of non-drug-treated control) is given as 55%. In addition, under setting [1], the “level of HBeAg in the culture supernatant, decreased to” value is on record as 50-60% and the “level of HBsAg in the culture supernatant, decreased to” value is 50-60%. The “HBsAg protein levels, dose dependence” value (FIG. 2A) is listed as “marked dose-dependent reduction”. Besides, the “core protein levels, dose dependence” value (FIG. 2B) is recorded as “marked dose-dependent reduction”. Further, where the note is “FIG. 2C”, the “HBV DNA in particles, dose dependence” value is given as “marked dose-dependent reduction”.
